Assay results from patent US9497964B2, “Synergistic activity of peracetic acid and at least one SAR inducer for the control of pathogens in and onto growing plants” (AGRI-NEO INC., priority 2010, dated 2016).

System: Fusarium patch disease
Experiment: Fusarium patch on turfgrass in British Columbia Canada
Assay type: in vivo
Settings: for % disease control vs untreated / mean # disease spots/plot: 0.6 kg/ha
Method: Creeping bentgrass was naturally inoculated with Fusarium patch disease. Four plots were assessed, and each plot was four square meters of mature turf. Four replicates were used per treatment. […] Azoxystrobin is a broad-spectrum fungicide with a single-site mode of action: it binds very tightly to the Qo site of Complex III in the mitochondrial electron transport chain of fungal pathogens. Thus the disease pest is prevented from generating ATP, so it dies for lack of metabolic energy. Azoxystrobin is itself extracted from certain Eastern European mushrooms reputed for their resistance to disease induced by other fungi. Azoxystrobin, marketed under the brand name of Heritage, is one of the commercial standards used in the management of Fusarium Patch disease on turf grass. It was against this reference that the efficacy of […] in controlling this pathogen was compared and contrasted.
Spray volume was one thousand liters per hectare. Three product applications were made. The interval between applications was 14 days.
Observations (disease symptoms, leaf damage due to product, and grass vigour) were made at the following intervals: • Immediately prior to each application. • Nine days after the last (third) application. • Sixty days after the last (third) application. • Ninety days after the last (third) application.

CO/C=C(/C(=O)OC)c1ccccc1Oc1cc(Oc2ccccc2C#N)ncn1 [Azoxystrobin]
% disease control vs untreated (Spring): 17%
mean # disease spots/plot (Spring): 10
% disease control vs untreated (Winter): 31%
mean # disease spots/plot (Winter): 9
reduction of disease incidence relative to the water-sprayed inoculated control (Azoxystrobin): 15-30%
